Experiment [1] addresses 5-hydroxytryptamine receptor 1B (Canis lupus familiaris, UniProt P79250).
Experiment [2] has as its target T1, 5-hydroxytryptamine receptor 2C (Homo sapiens, UniProt P28335).
T1 sequence (P28335 whole entry): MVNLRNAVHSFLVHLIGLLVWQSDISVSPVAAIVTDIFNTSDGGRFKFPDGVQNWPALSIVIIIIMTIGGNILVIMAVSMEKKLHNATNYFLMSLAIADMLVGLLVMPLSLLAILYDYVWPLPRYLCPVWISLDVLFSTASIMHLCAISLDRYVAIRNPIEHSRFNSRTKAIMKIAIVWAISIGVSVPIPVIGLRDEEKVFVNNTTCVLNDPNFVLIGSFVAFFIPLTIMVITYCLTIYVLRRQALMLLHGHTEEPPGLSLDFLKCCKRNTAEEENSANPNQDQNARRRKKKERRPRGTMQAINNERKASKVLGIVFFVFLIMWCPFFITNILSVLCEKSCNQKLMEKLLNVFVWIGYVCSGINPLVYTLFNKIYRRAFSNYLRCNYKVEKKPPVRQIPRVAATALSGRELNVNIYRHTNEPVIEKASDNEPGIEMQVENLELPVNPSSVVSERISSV

For experiment [3], the target named is 5-hydroxytryptamine receptor 7 (Homo sapiens, UniProt P34969).
Experiment [4] concerns the target 5-hydroxytryptamine receptor 5A (Homo sapiens, UniProt P47898).
For experiment [5], the target named is 5-hydroxytryptamine receptor 2A (Homo sapiens, UniProt P28223).
Experiment [6] addresses 5-hydroxytryptamine receptor 2B (Homo sapiens, UniProt P41595).
The target of experiment [7] is T2, Alpha-2A adrenergic receptor (Homo sapiens, UniProt P08913).
T2 sequence (P08913 whole entry): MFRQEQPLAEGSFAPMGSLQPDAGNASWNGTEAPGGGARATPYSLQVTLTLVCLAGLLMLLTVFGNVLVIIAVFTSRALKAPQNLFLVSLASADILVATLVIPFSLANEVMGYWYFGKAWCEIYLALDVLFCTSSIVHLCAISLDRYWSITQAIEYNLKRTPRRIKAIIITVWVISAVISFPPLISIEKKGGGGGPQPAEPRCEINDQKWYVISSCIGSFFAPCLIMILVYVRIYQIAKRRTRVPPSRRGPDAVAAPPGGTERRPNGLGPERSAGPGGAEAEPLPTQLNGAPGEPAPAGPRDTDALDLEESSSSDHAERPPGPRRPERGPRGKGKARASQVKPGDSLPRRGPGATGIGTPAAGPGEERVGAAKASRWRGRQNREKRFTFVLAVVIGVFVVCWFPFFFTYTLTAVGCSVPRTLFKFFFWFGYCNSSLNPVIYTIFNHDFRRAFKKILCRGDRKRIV

Experiment [8] deals with 5-hydroxytryptamine 1D receptor (Bos taurus, UniProt Q8MI13).
In experiment [9] the target is T3, 5-hydroxytryptamine receptor 3A (Homo sapiens, UniProt P46098).
T3 sequence (P46098 whole entry): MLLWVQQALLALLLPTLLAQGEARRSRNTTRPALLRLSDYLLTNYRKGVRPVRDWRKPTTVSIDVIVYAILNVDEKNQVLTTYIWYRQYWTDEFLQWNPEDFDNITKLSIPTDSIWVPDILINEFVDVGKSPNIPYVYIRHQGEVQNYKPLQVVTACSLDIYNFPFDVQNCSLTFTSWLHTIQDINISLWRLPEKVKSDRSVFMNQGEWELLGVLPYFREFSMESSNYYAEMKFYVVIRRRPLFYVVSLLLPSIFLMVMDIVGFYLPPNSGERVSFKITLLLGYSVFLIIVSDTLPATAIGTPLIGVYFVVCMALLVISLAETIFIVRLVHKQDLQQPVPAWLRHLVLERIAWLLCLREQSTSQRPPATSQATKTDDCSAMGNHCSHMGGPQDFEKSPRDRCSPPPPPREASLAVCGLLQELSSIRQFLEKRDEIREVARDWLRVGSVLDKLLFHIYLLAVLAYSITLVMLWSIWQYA

In general, pKi refers to −log10 of the Ki, conventionally taken in molar units. High values mean a small Ki, low ones a large Ki.

pKi: −log10 of the molar value.

5-hydroxytryptamine receptor 2A, sequence (P28223 whole entry): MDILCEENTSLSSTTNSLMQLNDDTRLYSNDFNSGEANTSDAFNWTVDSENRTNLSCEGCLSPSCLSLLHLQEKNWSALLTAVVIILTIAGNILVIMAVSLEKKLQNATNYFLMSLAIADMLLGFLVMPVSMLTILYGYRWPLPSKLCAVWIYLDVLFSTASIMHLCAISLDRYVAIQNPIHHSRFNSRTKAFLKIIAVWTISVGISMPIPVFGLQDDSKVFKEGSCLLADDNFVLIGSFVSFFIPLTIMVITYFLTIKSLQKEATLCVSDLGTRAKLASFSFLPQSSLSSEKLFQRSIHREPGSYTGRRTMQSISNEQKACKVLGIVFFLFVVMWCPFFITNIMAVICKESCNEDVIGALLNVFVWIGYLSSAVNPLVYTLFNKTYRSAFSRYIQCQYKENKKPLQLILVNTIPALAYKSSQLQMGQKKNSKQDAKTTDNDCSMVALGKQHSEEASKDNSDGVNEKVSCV
5-hydroxytryptamine receptor 2B, sequence (P41595 whole entry): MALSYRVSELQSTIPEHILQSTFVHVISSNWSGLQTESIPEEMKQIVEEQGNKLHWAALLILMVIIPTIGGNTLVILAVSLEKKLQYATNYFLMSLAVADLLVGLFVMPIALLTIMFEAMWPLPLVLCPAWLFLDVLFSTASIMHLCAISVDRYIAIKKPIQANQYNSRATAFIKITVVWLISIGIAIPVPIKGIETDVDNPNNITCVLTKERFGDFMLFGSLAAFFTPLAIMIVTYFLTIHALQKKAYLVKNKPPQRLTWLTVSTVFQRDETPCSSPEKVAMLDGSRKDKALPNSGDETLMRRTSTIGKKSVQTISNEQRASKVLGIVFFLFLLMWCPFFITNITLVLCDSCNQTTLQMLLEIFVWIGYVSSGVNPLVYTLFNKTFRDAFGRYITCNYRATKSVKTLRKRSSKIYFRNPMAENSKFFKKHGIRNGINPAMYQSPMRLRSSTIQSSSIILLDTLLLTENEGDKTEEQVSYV
5-hydroxytryptamine receptor 7, sequence (P34969 whole entry): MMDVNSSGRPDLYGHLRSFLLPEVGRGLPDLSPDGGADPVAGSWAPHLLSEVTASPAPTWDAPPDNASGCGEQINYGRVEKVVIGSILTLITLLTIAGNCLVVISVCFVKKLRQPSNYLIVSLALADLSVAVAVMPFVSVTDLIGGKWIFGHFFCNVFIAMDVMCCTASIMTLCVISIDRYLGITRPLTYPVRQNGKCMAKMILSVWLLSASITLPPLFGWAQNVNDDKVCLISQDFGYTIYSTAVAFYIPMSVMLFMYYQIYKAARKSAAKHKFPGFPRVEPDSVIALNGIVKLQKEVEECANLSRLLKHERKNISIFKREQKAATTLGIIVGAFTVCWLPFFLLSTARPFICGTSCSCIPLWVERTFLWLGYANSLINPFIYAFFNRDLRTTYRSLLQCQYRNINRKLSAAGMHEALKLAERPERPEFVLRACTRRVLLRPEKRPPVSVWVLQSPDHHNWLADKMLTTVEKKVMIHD
5-hydroxytryptamine receptor 1B, sequence (P79250 whole entry): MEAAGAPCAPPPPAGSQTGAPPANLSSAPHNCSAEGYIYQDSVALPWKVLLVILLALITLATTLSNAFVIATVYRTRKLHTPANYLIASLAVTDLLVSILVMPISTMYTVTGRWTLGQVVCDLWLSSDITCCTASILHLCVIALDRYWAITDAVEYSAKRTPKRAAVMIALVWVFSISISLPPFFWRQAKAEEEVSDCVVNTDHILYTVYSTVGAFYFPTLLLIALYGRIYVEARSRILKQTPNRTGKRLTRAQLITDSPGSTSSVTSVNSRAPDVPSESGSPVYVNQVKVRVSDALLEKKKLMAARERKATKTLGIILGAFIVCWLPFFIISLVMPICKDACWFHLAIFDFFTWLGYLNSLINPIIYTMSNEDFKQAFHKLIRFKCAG
5-hydroxytryptamine 1D receptor, sequence (Q8MI13 whole entry): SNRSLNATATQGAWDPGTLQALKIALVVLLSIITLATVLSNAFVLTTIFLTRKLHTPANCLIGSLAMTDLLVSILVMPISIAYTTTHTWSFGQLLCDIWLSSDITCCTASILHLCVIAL
5-hydroxytryptamine receptor 5A, sequence (P47898 whole entry): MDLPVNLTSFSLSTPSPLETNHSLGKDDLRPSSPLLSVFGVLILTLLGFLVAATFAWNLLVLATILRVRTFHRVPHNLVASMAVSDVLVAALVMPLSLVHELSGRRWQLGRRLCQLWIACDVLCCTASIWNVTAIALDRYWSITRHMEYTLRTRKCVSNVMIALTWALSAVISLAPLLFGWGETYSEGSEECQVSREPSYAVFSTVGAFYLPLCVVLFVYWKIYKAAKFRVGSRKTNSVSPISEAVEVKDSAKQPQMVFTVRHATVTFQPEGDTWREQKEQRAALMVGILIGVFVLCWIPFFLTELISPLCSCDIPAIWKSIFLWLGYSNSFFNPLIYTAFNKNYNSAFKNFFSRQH

As for `CCc1cc2c(ccc3cnn(CC(C)N)c32)o1` (configuration not stated) [CAS_3045225], the pKi in experiment [1] is 6.00; in experiment [2] it was 9.05; in experiment [3], 6.75; in experiment [4], 6.00; in [5], 7.89; in experiment [6] it was 8.60. Further, the pKi in experiment [7] is 6.90; in experiment [8], 6.32; in [9] it was 6.00.
For the compound `CC(N)Cn1ccc2cc(F)c(Cl)cc21` (configuration not stated) [NSC_3045226], the pKi in [2] is 7.72; in [5], 7.62; in experiment [6] it was 8.62.

(Values after BindingDB's records for doi:10.1016/j.ejphar.2003.10.004 (Yamanouchi Pharmaceutical, 2004).)
